# In patent US11168073B2, “3,3-difluoroallylamines or salts thereof and pharmaceutical compositions comprising the same” (YUHAN CORPORATION, priority 2018, dated 2021):
# Where a name gives a salt, the structure may show the parent alone. Read-outs that look alike come from different tables or passages of the source.
# Experiments:
# Format in all cases: biochemical
# [1] = biological target: T1, recombinant human MAO-A (monoamine oxidase-A) (Homo sapiens, UniProt P21397); test: Activity evaluation on recombinant human MAO-A (Amplex Red/HRP-coupled assay, 0.5 mM tyramine substrate); conditions: read-out: Inhibitory Activity (IC50, nM) MAO-A
# T1 construct: purchased Sigma-Aldrich
# T1 sequence (P21397 1-527): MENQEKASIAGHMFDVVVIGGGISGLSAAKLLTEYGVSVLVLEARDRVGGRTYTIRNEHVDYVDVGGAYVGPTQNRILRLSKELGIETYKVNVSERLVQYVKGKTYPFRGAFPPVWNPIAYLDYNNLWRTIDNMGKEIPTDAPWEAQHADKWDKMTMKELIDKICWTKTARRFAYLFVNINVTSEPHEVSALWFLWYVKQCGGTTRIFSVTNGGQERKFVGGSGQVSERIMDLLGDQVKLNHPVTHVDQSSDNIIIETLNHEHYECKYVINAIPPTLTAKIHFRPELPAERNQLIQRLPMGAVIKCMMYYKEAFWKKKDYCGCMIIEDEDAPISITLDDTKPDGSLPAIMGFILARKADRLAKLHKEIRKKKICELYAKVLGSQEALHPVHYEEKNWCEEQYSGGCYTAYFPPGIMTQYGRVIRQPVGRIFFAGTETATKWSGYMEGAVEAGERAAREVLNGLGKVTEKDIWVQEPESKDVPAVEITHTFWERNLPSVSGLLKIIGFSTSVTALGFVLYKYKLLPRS
# In short: (§1)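 Each oxidase is tested with its own substrate: MAO-A with 0.5 mM tyramine, MAO-B with 1 mM benzylamine, DAO with 1 mM putrescine. After 30 min enzyme-compound preincubation at 37 °C, Amplex Red (200 uM) plus HRP (1 U/mL) reports H2O2 as fluorescence; IC50 is fitted from eight-point curves.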
# recombinant human VAP-1 = biological target: T2, recombinant human VAP-1 (Homo sapiens, UniProt Q16853); test: Activity evaluation on recombinant human VAP-1 (Amplex Red/HRP-coupled hydrogen peroxide assay, benzylamine substrate); conditions: read-out: Inhibitory Activity (IC50, nM) human VAP-1
# T2 construct: purchased R&D systems
# T2 sequence (Q16853 1-763): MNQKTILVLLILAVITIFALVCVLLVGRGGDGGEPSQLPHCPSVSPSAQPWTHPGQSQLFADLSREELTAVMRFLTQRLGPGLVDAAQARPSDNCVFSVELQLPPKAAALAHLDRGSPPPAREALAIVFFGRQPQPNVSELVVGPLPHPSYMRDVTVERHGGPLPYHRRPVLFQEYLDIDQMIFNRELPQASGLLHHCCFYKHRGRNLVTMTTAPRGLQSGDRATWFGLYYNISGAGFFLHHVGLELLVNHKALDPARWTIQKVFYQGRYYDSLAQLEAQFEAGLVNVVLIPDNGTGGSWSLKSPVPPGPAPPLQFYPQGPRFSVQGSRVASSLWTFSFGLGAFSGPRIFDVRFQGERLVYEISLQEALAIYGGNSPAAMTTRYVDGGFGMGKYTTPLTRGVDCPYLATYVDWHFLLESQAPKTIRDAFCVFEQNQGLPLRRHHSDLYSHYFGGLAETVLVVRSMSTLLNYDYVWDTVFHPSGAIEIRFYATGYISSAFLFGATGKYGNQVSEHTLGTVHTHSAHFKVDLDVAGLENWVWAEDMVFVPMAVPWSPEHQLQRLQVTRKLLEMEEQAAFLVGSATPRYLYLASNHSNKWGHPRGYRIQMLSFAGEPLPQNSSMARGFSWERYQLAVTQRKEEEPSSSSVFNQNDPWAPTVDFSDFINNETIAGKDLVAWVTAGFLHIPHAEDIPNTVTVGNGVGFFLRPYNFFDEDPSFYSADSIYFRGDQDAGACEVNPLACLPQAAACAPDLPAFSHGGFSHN
# In short: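 Hydrogen peroxide from benzylamine (1 mM) oxidation by human recombinant VAP-1 detected via HRP-coupled Amplex Red (200 uM) fluorescence, kinetic over 1–2 h. Enzyme and compound preincubated 30 min at 37 °C, pH 7.4 phosphate; 8-point dose response, signal-rate decrease versus DMSO control fitted to four-parameter logistic for IC50.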
# [2] = biological target: T3, recombinant human DAO (diamine oxidase) (Homo sapiens, UniProt P19801); test: Activity evaluation on recombinant human DAO (Amplex Red/HRP-coupled assay, 1 mM putrescine substrate); conditions: read-out: Inhibitory Activity (IC50, nM) DAO
# T3 construct: purchased R&D systems
# T3 sequence (P19801 20-751): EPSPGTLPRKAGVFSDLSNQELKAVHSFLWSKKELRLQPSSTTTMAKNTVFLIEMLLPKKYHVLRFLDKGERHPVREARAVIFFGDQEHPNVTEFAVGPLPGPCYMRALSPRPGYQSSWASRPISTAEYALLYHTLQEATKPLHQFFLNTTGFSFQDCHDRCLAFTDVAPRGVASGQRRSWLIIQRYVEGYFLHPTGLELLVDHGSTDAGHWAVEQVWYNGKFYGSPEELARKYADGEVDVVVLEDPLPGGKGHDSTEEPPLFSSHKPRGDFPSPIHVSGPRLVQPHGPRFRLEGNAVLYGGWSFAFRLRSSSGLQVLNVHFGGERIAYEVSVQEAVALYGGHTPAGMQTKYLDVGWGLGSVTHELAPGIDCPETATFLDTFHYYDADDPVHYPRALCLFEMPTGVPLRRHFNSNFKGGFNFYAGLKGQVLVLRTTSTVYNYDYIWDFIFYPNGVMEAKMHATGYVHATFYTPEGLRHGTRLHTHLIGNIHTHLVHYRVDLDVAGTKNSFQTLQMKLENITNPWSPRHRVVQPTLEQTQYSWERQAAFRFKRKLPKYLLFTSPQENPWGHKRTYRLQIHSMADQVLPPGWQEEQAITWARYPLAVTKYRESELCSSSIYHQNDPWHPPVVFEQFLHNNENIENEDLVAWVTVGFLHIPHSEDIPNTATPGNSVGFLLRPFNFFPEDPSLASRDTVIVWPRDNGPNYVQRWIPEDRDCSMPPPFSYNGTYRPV
# In short: as §1
# [3] = biological target: T4, recombinant human MAO-B (monoamine oxidase-B) (Homo sapiens, UniProt P27338); test: Activity evaluation on recombinant human MAO-B (Amplex Red/HRP-coupled assay, 1 mM benzylamine substrate); conditions: read-out: Inhibitory Activity (IC50, nM) MAO-B
# T4 construct: purchased Sigma-Aldrich
# T4 sequence (P27338 1-520): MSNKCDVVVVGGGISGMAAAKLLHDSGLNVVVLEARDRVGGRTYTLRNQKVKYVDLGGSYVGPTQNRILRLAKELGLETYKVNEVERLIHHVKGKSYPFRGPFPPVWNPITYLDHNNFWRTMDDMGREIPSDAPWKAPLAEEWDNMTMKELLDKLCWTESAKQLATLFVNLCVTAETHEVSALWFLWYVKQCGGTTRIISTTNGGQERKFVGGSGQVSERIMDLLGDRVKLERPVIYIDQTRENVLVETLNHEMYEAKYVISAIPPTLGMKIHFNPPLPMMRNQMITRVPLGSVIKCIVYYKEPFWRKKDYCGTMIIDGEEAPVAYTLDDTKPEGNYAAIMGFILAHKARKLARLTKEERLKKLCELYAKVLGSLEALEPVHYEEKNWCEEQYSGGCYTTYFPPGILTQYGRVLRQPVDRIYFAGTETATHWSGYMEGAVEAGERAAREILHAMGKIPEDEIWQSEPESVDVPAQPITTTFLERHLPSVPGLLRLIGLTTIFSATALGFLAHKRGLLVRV
# In short: as §1
# [4] = recombinant human VAP-1, benzylamine substrate
# [5] = recombinant human VAP-1, 30 min preincubation at 37° C., 1 mM benzylamine
Compound,IC50 ([1]; 0.5 mM tyramine substrate) [nM],IC50 (recombinant human VAP-1; [4]) [nM],IC50 ([2]; 1 mM putrescine substrate) [nM],IC50 ([3]; 1 mM benzylamine substrate) [nM],IC50 ([1]; 0.5 mM tyramine) [nM],IC50 (recombinant human VAP-1; [5]) [nM],IC50 ([2]; 1 mM putrescine) [nM],IC50 ([3]; 1 mM benzylamine) [nM]
"CCn1cc(-c2cc(F)c(Cn3cnn(CC(CN)=C(F)F)c3=O)s2)cn1 [Example 302, 2-[2-(aminomethyl)-3,3-difluoro-allyl]-4-[[5-(1-ethylpyrazol-4-yl)-3-fluoro-2-thienyl]methyl]-1,2,4-triazol-3-one Trifluoroacetate]",> 100000,1.1,19500,> 100000,,,,
"Cn1c(-c2ccc(Cn3cnn(CC(CN)=C(F)F)c3=O)s2)cnc1Cl [Example 120, 2-[2-(aminomethyl)-3,3-difluoro-allyl]-4-[[5-(2-chloro-3-methyl-imidazol-4-yl)-2-thienyl]methyl]-1,2,4-triazol-3-one Trifluoroacetate]",,,,,> 100000,6,> 100000,> 100000
"Cc1cc(C#Cc2ccc(N(C)C)nc2)cnc1-n1cnn(CC(CN)=C(F)F)c1=O [Example 241, 2-[2-(aminomethyl)-3,3-difluoro-allyl]-4-[5-[2-[6-(dimethylamino)-3-pyridyl]ethynyl]-3-methyl-2-pyridyl]-1,2,4-triazol-3-one Trifluoroacetate]",> 100000,1.3,25000,6300,,,,
"CN(C)c1ccc(-c2ccc(-n3cnn(CC(CN)=C(F)F)c3=O)c(F)c2)cn1 [Example 34, 2-[2-(aminomethyl)-3,3-difluoro-allyl]-4-[4-[6-(dimethylamino)-3-pyridyl]-2-fluoro-phenyl]-1,2,4-triazol-3-one Trifluoroacetate]",,,,,27000,0.3,250,770
"NCC(Cn1ncn(Cc2cc3ccc(-c4ccc(N5CCNCC5)cc4)cc3s2)c1=O)=C(F)F [Example 198, 2-[2-(aminomethyl)-3,3-difluoro-allyl]-4-[[6-(4-piperazin-1-ylphenyl)benzothiophen-2-yl]methyl]-1,2,4-triazol-3-one Ditrifluoroacetate]",> 100000,4.6,880,23000,,,,
"CNC(=O)c1ccc(-c2ccc(Cn3cnn(CC(CN)=C(F)F)c3=O)s2)cc1 [Example 104, 4-[5-[[1-[2-(aminomethyl)-3,3-difluoro-allyl]-5-oxo-1,2,4-triazol-4-yl]methyl]-2-thienyl]-N-methyl-benzamide trifluoroacetate]",,,,,> 100000,0.5,31000,> 10000
"NCC(Cn1ncn(Cc2ccc(C#Cc3cnc4c(c3)OCCN4)s2)c1=O)=C(F)F [Example 167, 2-[2-(aminomethyl)-3,3-difluoro-allyl]-4-[[5-[2-(3,4-dihydro-2H-pyrido[3,2-b][1,4]oxazin-7-yl)ethynyl]-2-thienyl]methyl]-1,2,4-triazol-3-one Ditrifluoroacetate]",,,,,> 100000,2.1,> 10000,41000
"NCC(Cn1ncn(Cc2cc(-c3ccc4c(c3)CCC(=O)N4)cs2)c1=O)=C(F)F [Example 192, 6-[5-[[1-[2-(aminomethyl)-3,3-difluoro-allyl]-5-oxo-1,2,4-triazol-4-yl]methyl]-3-thienyl]-3,4-dihydro-1H-quinolin-2-one Trifluoroacetate]",> 100000,0.4,22000,56000,,,,
"NCC(Cn1ncn(Cc2ccccc2-c2ccc3c(c2)OCO3)c1=O)=C(F)F [Example 282, 2-[2-(aminomethyl)-3,3-difluoro-allyl]-4-[[2-(1,3-benzodioxol-5-yl)phenyl]methyl]-1,2,4-triazol-3-one Trifluoroacetate]",> 100000,28,> 100000,> 100000,,,,
"NCC(Cn1ncn(-c2cccc(Br)n2)c1=O)=C(F)F [Example 8, 2-[2-(aminomethyl)-3,3-difluoro-allyl]-4-(6-bromo-2-pyridyl)-1,2,4-triazol-3-one Trifluoroacetate]",,,,,> 100000,2.2,10500,> 100000
"Cc1c(-c2ccc(C(F)(F)F)nc2)cccc1-n1cnn(CC(CN)=C(F)F)c1=O [Example 255, 2-[2-(aminomethyl)-3,3-difluoro-allyl]-4-[2-methyl-3-[6-(trifluoromethyl)-3-pyridyl]phenyl]-1,2,4-triazol-3-one Trifluoroacetate]",> 100000,2.3,35000,> 100000,,,,
"CN(C)c1ccc(-c2ccc(-n3cnn(CC(CN)=C(F)F)c3=O)cn2)cn1 [Example 41, 2-[2-(aminomethyl)-3,3-difluoro-allyl]-4-[6-[6-(dimethylamino)-3-pyridyl]-3-pyridyl]-1,2,4-triazol-3-one Trifluoroacetate]",,,,,> 100000,0.2,120,470
"Cc1cc(-c2cccc(-n3cnn(CC(CN)=C(F)F)c3=O)c2)cc2c1NC(=O)CC2 [Example 22, 6-[3-[1-[2-(aminomethyl)-3,3-difluoro-allyl]-5-oxo-1,2,4-triazol-4-yl]phenyl]-8-methyl-3,4-dihydro-1H-quinolin-2-one Trifluoroacetate]",,,,,> 100000,0.8,> 10000,> 100000
